{
  "source": "paper PMC10304291",
  "about": "“THC-Reduced Cannabis sativa L.—How Does the Solvent Determine the Bioavailability of Cannabinoids Given Orally?” (Nutrients, 2023)",
  "key": {"[1]": {"test": "Brain pharmacokinetics of CBD and THC after single oral dose of Cannabis sativa extract", "settings": "for mean concentration over time / Kp / concentration at 0.5 h / concentration at 1 h / concentration at 2 h / concentration at 4 h / concentration at 6 h / AUC(0-t) / Cmax / MRT: single oral dose of extract 30 mg/kg; for mean concentration over time: Table 7; for Kp: brain / whole blood, AUCbrain:AUC whole blood (AUC0–24 ratio); for concentration at 0.5 h / concentration at 1 h / concentration at 2 h / concentration at 4 h / concentration at 6 h: oral; for AUC(0-t): AUC0–24, brain"}, "[2]": {"settings": "12 healthy volunteers; chocolate cookies with 0.57 mg/kg CBD + 0.28 mg/kg THC; after 1.5–3 h; cited from earlier work"}, "[3]": {"settings": "mini-pigs; oral CBD 15 mg/kg; cited from earlier work"}, "[4]": {"test": "Whole-blood pharmacokinetics of CBD and THC after single oral dose of Cannabis sativa extract", "settings": "whole blood, single oral dose of extract 30 mg/kg; for concentration at 0.5 h / concentration at 1 h / concentration at 2 h / concentration at 4 h / concentration at 6 h / concentration at 24 h / AUC(0-t) / Cmax / MRT / Tmax: male, Wistar, rat, 30 mg/kg; for concentration at 0.5 h / concentration at 1 h / concentration at 2 h / concentration at 4 h / concentration at 6 h / concentration at 24 h: oral; for AUC(0-t) / Cmax / MRT / Tmax: po; for AUC(0-t): AUC0–24, whole blood"}, "[5]": {"settings": "rats; 3 or 6 h after oral CBD 50 mg/kg in olive oil; cited from earlier work"}, "[6]": {"settings": "male, Wistar, rat, brain, po, 30 mg/kg, Cremophor"}, "[7]": {"settings": "male, Wistar, rat, brain, po, 30 mg/kg, Rapae oleum"}, "[8]": {"settings": "Mean Concentration ± SD, blood, Rapae oleum"}, "[9]": {"settings": "Mean Concentration, blood, Cremophor"}, "[10]": {"settings": "mean concentration over time, Blood/Cremophor, Table 7"}, "[11]": {"settings": "mean concentration over time, Blood/Rapae Oleum, Table 7"}},
  "data": [
    {"smiles": "CCCCCc1cc(O)c2c(c1)OC(C)(C)[C@@H]1CCC(C)=C[C@@H]21", "note": "[THC, Δ-9-tetrahydrocannabinol]", "values": [
      {"measurement": "mean concentration over time", "setting": "[1]; Brain/Cremophor, 0.5 h", "value": 18.575},
      {"measurement": "mean concentration over time", "setting": "[1]; Brain/Cremophor, 1 h", "value": 49.521},
      {"measurement": "mean concentration over time", "setting": "[1]; Brain/Cremophor, 2 h", "value": 56.85},
      {"measurement": "mean concentration over time", "setting": "[1]; Brain/Cremophor, 4 h", "value": 35.976},
      {"measurement": "mean concentration over time", "setting": "[1]; Brain/Cremophor, 6 h", "value": 35.947},
      {"measurement": "mean concentration over time", "setting": "[1]; Brain/Cremophor, 24 h", "value": 1.154},
      {"measurement": "mean concentration over time", "setting": "[1]; Brain/Rapae oleum, 0.5 h", "value": 3.719},
      {"measurement": "mean concentration over time", "setting": "[1]; Brain/Rapae oleum, 1 h", "value": 43.593},
      {"measurement": "mean concentration over time", "setting": "[1]; Brain/Rapae oleum, 2 h", "value": 75.768},
      {"measurement": "mean concentration over time", "setting": "[1]; Brain/Rapae oleum, 4 h", "value": 27.792},
      {"measurement": "mean concentration over time", "setting": "[1]; Brain/Rapae oleum, 6 h", "value": 3.7605},
      {"measurement": "mean concentration over time", "setting": "[1]; Brain/Rapae oleum, 24 h", "value": 0},
      {"measurement": "Kp", "setting": "[1]; male, Wistar, rat, po, 30 mg/kg, Cremophor", "value": 1.22},
      {"measurement": "Kp", "setting": "[1]; male, Wistar, rat, po, 30 mg/kg, Rapae oleum", "value": 3.72},
      {"measurement": "concentration at 0.5 h", "setting": "[1]; male, Wistar, rat, brain, 30 mg/kg, Mean Concentration ± SD, Rapae oleum, 0.5 h", "value": "3.72 ± 2.35", "unit": "ng/g"},
      {"measurement": "concentration at 1 h", "setting": "[1]; male, Wistar, rat, brain, 30 mg/kg, Mean Concentration ± SD, Rapae oleum, 1 h", "value": "43.6 ± 24.8", "unit": "ng/g"},
      {"measurement": "concentration at 2 h", "setting": "[1]; male, Wistar, rat, brain, 30 mg/kg, Mean Concentration ± SD, Rapae oleum, 2 h", "value": "75.8 ± 43.8", "unit": "ng/g"},
      {"measurement": "concentration at 4 h", "setting": "[1]; male, Wistar, rat, brain, 30 mg/kg, Mean Concentration ± SD, Rapae oleum, 4 h", "value": "27.8 ± 15.2", "unit": "ng/g"},
      {"measurement": "concentration at 6 h", "setting": "[1]; male, Wistar, rat, brain, 30 mg/kg, Mean Concentration ± SD, Rapae oleum, 6 h", "value": "3.76 ± 2.61", "unit": "ng/g"},
      {"measurement": "concentration at 0.5 h", "setting": "[1]; male, Wistar, rat, brain, 30 mg/kg, Mean Concentration, Cremophor, 0.5 h", "value": "18.6 ± 11.6", "unit": "ng/g"},
      {"measurement": "concentration at 1 h", "setting": "[1]; male, Wistar, rat, brain, 30 mg/kg, Mean Concentration, Cremophor, 1 h", "value": "49.5 ± 9.47", "unit": "ng/g"},
      {"measurement": "concentration at 2 h", "setting": "[1]; male, Wistar, rat, brain, 30 mg/kg, Mean Concentration, Cremophor, 2 h", "value": "56.9 ± 7.39", "unit": "ng/g"},
      {"measurement": "concentration at 4 h", "setting": "[1]; male, Wistar, rat, brain, 30 mg/kg, Mean Concentration, Cremophor, 4 h", "value": "36 ± 7.45", "unit": "ng/g"},
      {"measurement": "concentration at 6 h", "setting": "[1]; male, Wistar, rat, brain, 30 mg/kg, Mean Concentration, Cremophor, 6 h", "value": "35.9 ± 12.7", "unit": "ng/g"},
      {"measurement": "Tmax", "setting": "[1]; male, Wistar, rat, brain, po, 30 mg/kg", "value": 4, "unit": "h"},
      {"measurement": "AUC(0-t)", "setting": "[1]; [6]", "value": 656, "unit": "ng·h/mL"},
      {"measurement": "AUC(0-t)", "setting": "[1]; [7]", "value": 553, "unit": "ng·h/mL"},
      {"measurement": "Cmax", "setting": "[1]; [6]", "value": 56.9, "unit": "ng/g"},
      {"measurement": "Cmax", "setting": "[1]; [7]", "value": 75.8, "unit": "ng/g"},
      {"measurement": "MRT", "setting": "[1]; [6]", "value": 5.11, "unit": "h"},
      {"measurement": "MRT", "setting": "[1]; [7]", "value": 7.19, "unit": "h"},
      {"measurement": "whole-blood concentration", "setting": "[2]", "value": "about 5 ng/mL"},
      {"measurement": "Δ9-THC after oral CBD", "setting": "[3]", "value": "did not detect"},
      {"measurement": "concentration at 0.5 h", "setting": "[4]; [8]", "value": "11.9 ± 18", "unit": "ng/g"},
      {"measurement": "concentration at 1 h", "setting": "[4]; [8]", "value": "11 ± 5.21", "unit": "ng/g"},
      {"measurement": "concentration at 2 h", "setting": "[4]; [8]", "value": "24 ± 7.22", "unit": "ng/g"},
      {"measurement": "concentration at 4 h", "setting": "[4]; [8]", "value": "26.2 ± 19.1", "unit": "ng/g"},
      {"measurement": "concentration at 6 h", "setting": "[4]; [8]", "value": "10.3 ± 2.1", "unit": "ng/g"},
      {"measurement": "concentration at 24 h", "setting": "[4]; [8]", "value": "0.445 ± 0.21", "unit": "ng/g"},
      {"measurement": "concentration at 0.5 h", "setting": "[4]; [9]", "value": "13.1 ± 10.9", "unit": "ng/g"},
      {"measurement": "concentration at 1 h", "setting": "[4]; [9]", "value": "18.5 ± 1.98", "unit": "ng/g"},
      {"measurement": "concentration at 2 h", "setting": "[4]; [9]", "value": "14 ± 3.3", "unit": "ng/g"},
      {"measurement": "concentration at 4 h", "setting": "[4]; [9]", "value": "8.01 ± 1.48", "unit": "ng/g"},
      {"measurement": "concentration at 6 h", "setting": "[4]; [9]", "value": "9.04 ± 4.39", "unit": "ng/g"},
      {"measurement": "concentration at 24 h", "setting": "[4]; [9]", "value": "3.79 ± 4.59", "unit": "ng/g"},
      {"measurement": "concentration at 0.5 h", "setting": "[4]; [10]", "value": 13.1, "unit": "ng/mL"},
      {"measurement": "concentration at 1 h", "setting": "[4]; [10]", "value": 18.5, "unit": "ng/mL"},
      {"measurement": "concentration at 2 h", "setting": "[4]; [10]", "value": 14, "unit": "ng/mL"},
      {"measurement": "concentration at 4 h", "setting": "[4]; [10]", "value": 8.01, "unit": "ng/mL"},
      {"measurement": "concentration at 6 h", "setting": "[4]; [10]", "value": 9.04, "unit": "ng/mL"},
      {"measurement": "concentration at 24 h", "setting": "[4]; [10]", "value": 3.79, "unit": "ng/mL"},
      {"measurement": "concentration at 0.5 h", "setting": "[4]; [11]", "value": 11.9, "unit": "ng/mL"},
      {"measurement": "concentration at 1 h", "setting": "[4]; [11]", "value": 11, "unit": "ng/mL"},
      {"measurement": "concentration at 2 h", "setting": "[4]; [11]", "value": 24, "unit": "ng/mL"},
      {"measurement": "concentration at 4 h", "setting": "[4]; [11]", "value": 26.2, "unit": "ng/mL"},
      {"measurement": "concentration at 6 h", "setting": "[4]; [11]", "value": 10.3, "unit": "ng/mL"},
      {"measurement": "concentration at 24 h", "setting": "[4]; [11]", "value": 0.445, "unit": "ng/mL"},
      {"measurement": "AUC(0-t)", "setting": "[4]; Cremophor", "value": 217, "unit": "ng·h/mL"},
      {"measurement": "AUC(0-t)", "setting": "[4]; Rapae oleum", "value": 186, "unit": "ng·h/mL"},
      {"measurement": "Cmax", "setting": "[4]; Cremophor", "value": 18.5, "unit": "ng/mL"},
      {"measurement": "Cmax", "setting": "[4]; Rapae oleum", "value": 26.2, "unit": "ng/mL"},
      {"measurement": "MRT", "setting": "[4]; Cremophor", "value": 12.7, "unit": "h"},
      {"measurement": "MRT", "setting": "[4]; Rapae oleum", "value": 5.75, "unit": "h"},
      {"measurement": "Tmax", "setting": "[4]; Cremophor", "value": 1, "unit": "h"},
      {"measurement": "Tmax", "setting": "[4]; Rapae oleum", "value": 4, "unit": "h"},
      {"measurement": "CL", "setting": "[4]; Cremophor", "value": 2.18, "unit": "L/h"},
      {"measurement": "Vd", "setting": "[4]; Cremophor", "value": 28.26, "unit": "L"},
      {"measurement": "CL", "setting": "[4]; Rapae oleum", "value": 2.56, "unit": "L/h"},
      {"measurement": "Vd", "setting": "[4]; Rapae oleum", "value": 15.15, "unit": "L"},
      {"measurement": "Δ9-THC in the blood after oral CBD", "setting": "[5]", "value": "did not detect"}
    ]}
  ]
}
